According to EP4603105A1, “PHARMACEUTICAL COMPOSITION CONTAINING CYCLIC COMPOUND HAVING SELECTIVE KRAS INHIBITORY EFFECT AGAINST HRAS AND NRAS” (CHUGAI SEIYAKU KABUSHIKI KAISHA, priority 2022, dated 2024):
Like-named read-outs stand apart in the source and are kept apart here. Where a SMILES comes first, the peptide text is derived from it. Bridges are numbered along the chain shown (N, C = ends). [ ]: non-standard residue; d: D form. The star is where a group is joined. hPhe(3,5-F2-4-CF3) = N[C@@H](CCc1cc(F)c(C(F)(F)F)c(F)c1)C(=O)O; hPhe(3-Cl-4-CF3) = N[C@@H](CCc1ccc(C(F)(F)F)c(Cl)c1)C(=O)O; NPrPhe(4-CF3) = CCCN[C@@H](Cc1ccc(C(F)(F)F)cc1)C(=O)O; NEtPhe(4-Me) = CCN[C@@H](Cc1ccc(C)cc1)C(=O)O; Pro(4-spirocPr) = O=C(O)[C@@H]1CC2(CC2)CN1; NMeGly(cPent) = CN[C@H](C(=O)O)C1CCCC1; NMeD = CN[C@@H](CC(=O)O)C(=O)O; Ac4c(3-oxa) = NC1(C(=O)O)COC1; NMeL = CN[C@@H](CC(C)C)C(=O)O; Morpholide = C1CN(*)CCO1; Ac5c = NC1(C(=O)O)CCCC1; NEtG = CCNCC(=O)O; Sar = CNCC(=O)O

Columns and labels:
HRAS wild-type protein = HRAS wild-type protein (Homo sapiens, UniProt P01112); test: Binding to HRAS by surface plasmon resonance (SPR), KD and KD ratio to KRAS
Chain of HRAS wild-type protein (P01112 whole entry): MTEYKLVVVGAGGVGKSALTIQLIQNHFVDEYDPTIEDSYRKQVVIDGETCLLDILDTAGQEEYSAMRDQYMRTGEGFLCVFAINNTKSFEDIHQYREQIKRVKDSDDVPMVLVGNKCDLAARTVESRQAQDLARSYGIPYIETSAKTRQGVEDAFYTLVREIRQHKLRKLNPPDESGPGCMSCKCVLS
How it was run: (§1)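 Biotinylated GDP-bound RAS was captured at about 100–300 RU. Running buffer: HBS pH 7.4, 10 mM MgCl2, 10 µM GDP, 1 mM DTT, 0.01% Tween 20, 4% DMSO.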

[1] = system: human lung cancer strain NCI-H441; format: cell-based
How it was run: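 Step one: dispense the test compound in serial DMSO dilutions. Step three: add the reagent and measure […].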

[2] = target: GDP-bound NRAS wild-type protein (Homo sapiens, UniProt P01111); test: Binding to NRAS by surface plasmon resonance (SPR), KD and KD ratio to KRAS
Chain of GDP-bound NRAS wild-type protein (P01111 whole entry): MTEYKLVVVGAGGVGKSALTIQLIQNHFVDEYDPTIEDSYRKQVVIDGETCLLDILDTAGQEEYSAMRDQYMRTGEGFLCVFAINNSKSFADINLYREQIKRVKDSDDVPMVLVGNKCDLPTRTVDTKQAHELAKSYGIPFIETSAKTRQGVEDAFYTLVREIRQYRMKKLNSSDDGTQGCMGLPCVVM
How it was run: as §1

[3] = ratio of the KD value with respect to HRAS wild-type protein to the KD value with respect to KRAS
[4] = ratio of the KD value with respect to GDP-bound NRAS wild-type protein to the KD value with respect to KRAS
[5] = ratio of KD for HRAS wild-type protein to KD for KRAS
[6] = ratio of KD for GDP-bound NRAS wild-type protein to KD for KRAS

| Structure (SMILES) | HRAS /KRAS (HRAS wild-type protein; [3]) | IC50 [1] | NRAS /KRAS [2, 4] | HRAS /KRAS (HRAS wild-type protein; [5]) | NRAS /KRAS [2, 6] | IC50 ([1]; NCI-H441 cells, 4 days, CellTiter-Glo, read-out: NCl-H441 IC50) |
| --- | --- | --- | --- | --- | --- | --- |
| CCC[C@H]1C(=O)N[C@@H]([C@@H](C)CC)C(=O)N2CCC[C@H]2C(=O)N(C)[C@H]2C/C=C\CCN(C2=O)[C@@H](CC2CCCCC2)C(=O)N(C)CC(=O)N[C@@H](CCc2ccc(C(F)(F)F)c(OC)c2)C(=O)N2C[C@H](OCC)C[C@H]2C(=O)N(C)C2(CCC2)C(=O)N(C)[C@@H](C(CC)CC)C(=O)N(C)[C@H](C(=O)N(C)C)CC(=O)N1C [PP2341] | A (a compound having 10 or more and less than 20 is denoted as A) | 133 nM | A (a compound having 10 or more and less than 20 is denoted as A) |  |  |  |
| C#CCN1CC(=O)N(C)[C@H]2C/C=C\CCN(C2=O)[C@@H](Cc2ccc(C(F)(F)F)cc2)C(=O)N(C)CC(=O)N[C@@H](CCc2cc(F)c(C(F)(F)F)c(F)c2)C(=O)N2C[C@H](OCC)C[C@H]2C(=O)NC2(CC(C)(C)C2)C(=O)N(C)[C@@H](C2CCCC2)C(=O)N(C)[C@H](C(=O)N(C)C)CC(=O)N(C)[C@@H](CCC)C(=O)N[C@@H]([C@@H](C)CC)C1=O [PP2103] | A (a compound having 10 or more and less than 20 is denoted as A) | 4.3 nM | A (a compound having 10 or more and less than 20 is denoted as A) |  |  |  |
| CC[C@H](C)[C@@H]1NC(=O)[C@H](CC(C)C)N(C)C(=O)C[C@@H](C(=O)N2CCOCC2)N(C)C(=O)[C@H](C2CCCC2)N(C)C(=O)C2(CCCC2)NC(=O)[C@@H]2CCCN2C(=O)[C@H](CCc2ccc(C(F)(F)F)c(Cl)c2)NC(=O)CN(C)C(=O)[C@H](Cc2ccc(C)cc2)N(CC)C(=O)CN(CC)C(=O)CN(C)C1=O [PP0027] ([NMeL]I[Sar][NEtG][NEtPhe(4-Me)][Sar][hPhe(3-Cl-4-CF3)]P[Ac5c][NMeGly(cPent)][NMeD]-Morpholide; lactam N-11) |  | 17.1 nM |  | C (A compound having a KD ratio of 0.1 or more and less than 3 is denoted as C) | C (A compound having a KD ratio of 0.1 or more and less than 3 is denoted as C) |  |
| CC[C@H](C)[C@@H]1NC(=O)[C@H](CC(C)C)N(C)C(=O)C[C@@H](C(=O)N2CCOCC2)N(C)C(=O)[C@H](C2CCCC2)N(C)C(=O)C2(CCOCC2)NC(=O)[C@@H]2CCCN2C(=O)[C@H](CCc2cc(F)c(C(F)(F)F)c(F)c2)NC(=O)CN(C)C(=O)[C@H](Cc2ccc(C(F)(F)F)cc2)N2CCCCC[C@@H](C2=O)N(C)C(=O)CN(C)C1=O [PP0502] | B (a compound having 3 or more and less than 10 is denoted as B) | 1820 nM | A (a compound having 10 or more and less than 20 is denoted as A) |  |  |  |
| CCO[C@@H]1C[C@H]2C(=O)NC3(CCC3)C(=O)N(C)[C@@H](C(C)C)C(=O)N(C)[C@H](C(=O)N(C)C)CC(=O)N(C)[C@@H](CC)C(=O)N[C@@H]([C@@H](C)CC)C(=O)N(C)CC(=O)N(C)[C@H]3C/C=C\CCN(C3=O)[C@@H](Cc3ccc(C(F)(F)F)cc3)C(=O)N(C)CC(=O)N[C@@H](CCc3cc(F)c(C(F)(F)F)c(F)c3)C(=O)N2C1 [PP1088] |  | 195 nM |  | A (a compound having 10 or more and less than 20 is denoted as A) | A (a compound having 10 or more and less than 20 is denoted as A) |  |
| CC[C@H](C)[C@@H]1NC(=O)[C@H](CC)N(C)C(=O)C[C@@H](C(=O)N(C)C)N(C)C(=O)[C@H](C2CCCC2)N(C)C(=O)C2(CCC2)NC(=O)[C@@H]2C[C@H](OC)CN2C(=O)[C@H](CCc2cc(F)c(C(F)(F)F)c(F)c2)NC(=O)CN(C)C(=O)[C@H](Cc2ccc(C(F)(F)F)cc2)N2CC/C=C\C[C@@H](C2=O)N(C)C(=O)CN(C)C1=O [PP1128] |  | 121 nM |  | A (a compound having 10 or more and less than 20 is denoted as A) | AA (a compound having 20 or more is denoted as AA) |  |
| CCCN1C(=O)CN(C)C(=O)CN(C)C(=O)[C@H]([C@@H](C)CC)NC(=O)[C@H](CC(C)C)N(C)C(=O)C[C@@H](C(=O)N(C)C)N(C)C(=O)[C@H](C2CCCC2)N(C)C(=O)C2(COC2)NC(=O)[C@@H]2CCCN2C(=O)[C@H](CCc2cc(F)c(C(F)(F)F)c(F)c2)NC(=O)CN(C)C(=O)[C@@H]1Cc1ccc(C(F)(F)F)cc1 [PP0744] ([NMeL]I[Sar][Sar][NPrPhe(4-CF3)][Sar][hPhe(3,5-F2-4-CF3)]P[Ac4c(3-oxa)][NMeGly(cPent)][NMeD]-NMe2; lactam N-11) | B (a compound having 3 or more and less than 10 is denoted as B) | 57 nM | B (a compound having 3 or more and less than 10 is denoted as B) |  |  |  |
| CC[C@H](C)[C@@H]1NC(=O)[C@@H]2CCC/C=C/c3ccc(cc3)C[C@@H](C(=O)N(C)CC(=O)N[C@@H](CCc3ccc(Cl)c(Cl)c3)C(=O)N3C[C@H](OC(C)C)C[C@H]3C(=O)NC3(CC(C)(C)C3)C(=O)N(C)[C@@H](C3CCCC3)C(=O)N(C)[C@H](C(=O)N3CCCC3)CC(=O)N2C)N2CC/C=C\C[C@@H](C2=O)N(C)C(=O)CN(C)C1=O [PP2596] |  | 13.7 nM |  | A (a compound having 10 or more and less than 20 is denoted as A) | A (a compound having 10 or more and less than 20 is denoted as A) |  |
| CCO[C@@H]1C[C@H]2C(=O)NC3(CCC3)C(=O)N(C)[C@@H](C3CCCC3)C(=O)N(CCC3CCCC3)[C@H](C(=O)N(C)C)CC(=O)N(C)[C@@H](CC)C(=O)N[C@@H]([C@@H](C)CC)C(=O)N(C)CC(=O)N(C)[C@H]3C/C=C\CCN(C3=O)[C@@H](Cc3ccc(C(F)(F)F)cc3)C(=O)N(C)CC(=O)N[C@@H](CCc3cc(F)c(C(F)(F)F)c(F)c3)C(=O)N2C1 [PP0982] |  | 372 nM |  | A (a compound having 10 or more and less than 20 is denoted as A) | AA (a compound having 20 or more is denoted as AA) |  |
| CCO[C@@H]1C[C@H]2C(=O)NC3(CCCC3)C(=O)N(C)[C@@H](C3CCCC3)C(=O)N(C)[C@H](C)CC(=O)N(C)[C@@H](CC(C)C)C(=O)N[C@@H]([C@@H](C)CC)C(=O)N(C)CC(=O)N(C)[C@H]3C/C=C\CCN(C3=O)[C@@H](Cc3ccc(C(F)(F)F)cc3)C(=O)N(C)CC(=O)N[C@@H](CCc3cc(F)c(C(F)(F)F)c(F)c3)C(=O)N2C1 [PP1096] |  | 38.1 nM |  | B (a compound having 3 or more and less than 10 is denoted as B) | B (a compound having 3 or more and less than 10 is denoted as B) |  |
| CCO[C@@H]1C[C@H]2C(=O)NC3(CCC3)C(=O)N(C)[C@@H](C3CCCC3)C(=O)N(C)[C@H](C(=O)N(C)C)CC(=O)N(C)[C@@H](CC)C(=O)N[C@@H]([C@@H](C)CC)C(=O)N(C)CC(=O)N(C)[C@H]3CCCCN(C3=O)[C@@H](Cc3ccc(C(F)(F)F)cc3)C(=O)N(C)CC(=O)N[C@@H](CCc3ccc(Cl)c(Cl)c3)C(=O)N2C1 [PP0987] |  | 6.8 nM |  | C (A compound having a KD ratio of 0.1 or more and less than 3 is denoted as C) | C (A compound having a KD ratio of 0.1 or more and less than 3 is denoted as C) |  |
| CC[C@H](C)[C@@H]1NC(=O)[C@H](CC(C)C)N(C)C(=O)C[C@@H](C(=O)N2CCCCC2)N(C)C(=O)[C@H](C2CCCC2)N(C)C(=O)C2(CCCC2)NC(=O)[C@@H]2CCCN2C(=O)[C@H](CCc2cc(F)c(C(F)(F)F)c(F)c2)NC(=O)CN(C)C(=O)[C@H](Cc2ccc(C(F)(F)F)cc2)N2CCCCC[C@@H](C2=O)N(C)C(=O)CN(C)C1=O [PP0510] | B (a compound having 3 or more and less than 10 is denoted as B) | 391 nM | B (a compound having 3 or more and less than 10 is denoted as B) |  |  |  |
| CCO[C@@H]1C[C@H]2C(=O)NC3(CCC3)C(=O)N(C)[C@@H](C3CCCC3)C(=O)N(C)[C@H](C(=O)N3CCOCC3)CC(=O)N(C)C[C@@H](C)C(=O)N[C@@H]([C@@H](C)CC)C(=O)N(C)CC(=O)N(C)[C@H]3CCCCN(C3=O)[C@@H](Cc3ccc(C(F)(F)F)cc3)C(=O)N(C)CC(=O)N[C@@H](CCc3cc(F)c(C(F)(F)F)c(F)c3)C(=O)N2C1 [PP0721] | B (a compound having 3 or more and less than 10 is denoted as B) | 4700 nM | B (a compound having 3 or more and less than 10 is denoted as B) |  |  |  |
| CCCN1C(=O)CN(C)C(=O)CN(C)C(=O)[C@H]([C@@H](C)CC)NC(=O)[C@H](CC(C)C)N(C)C(=O)C[C@@H](C(=O)N2CCOCC2)N(C)C(=O)[C@H](C2CCCC2)N(C)C(=O)C2(CCCC2)NC(=O)[C@@H]2CC3(CC3)CN2C(=O)[C@H](CCc2ccc(C(F)(F)F)c(Cl)c2)NC(=O)CN(C)C(=O)[C@@H]1Cc1ccc(C(F)(F)F)cc1 [PP0261] ([NMeL]I[Sar][Sar][NPrPhe(4-CF3)][Sar][hPhe(3-Cl-4-CF3)][Pro(4-spirocPr)][Ac5c][NMeGly(cPent)][NMeD]-Morpholide; lactam N-11) |  | 4.6 nM |  | C (A compound having a KD ratio of 0.1 or more and less than 3 is denoted as C) | B (a compound having 3 or more and less than 10 is denoted as B) |  |
| CCO[C@@H]1C[C@H]2C(=O)NC3(CC(C)(C)C3)C(=O)N(C)[C@@H](C3CCCC3)C(=O)N(C)[C@H](C(=O)N(C)C)CC(=O)N(C)[C@@H](CC(C)C)C(=O)N[C@@H]([C@@H](C)CC)C(=O)N(C)CC(=O)N(C)[C@H]3C/C=C\CCN(C3=O)[C@@H](Cc3ccc(C)c(F)c3)C(=O)N(C)CC(=O)N[C@@H](CCc3ccc(C(F)(F)F)c(OC)c3)C(=O)N2C1 [PP2689] |  |  |  | B (a compound having 3 or more and less than 10 is denoted as B) | A (a compound having 10 or more and less than 20 is denoted as A) | 6.2 nM |
